According to US20090221624A1, “4-AMINOQUINOLINE COMPOUNDS FOR TREATING VIRUS-RELATED CONDITIONS” (priority 2005, published 2009):
Read-outs that look alike come from different tables or passages of the source.

What was measured:
EBOV minigenome = assay: microbe, parasite or virus in culture; type: cell-based, Ebola virus; conditions: Zaire ebolavirus; for inhibition at 25 µM: 24 h, read-out: EBOV Inh; for EC50: read-out: EBOV EC50
SINV (SR19-F-luc cells) = assay: SINV antiviral activity, SR19-F-luc cells, Firefly luciferase; type: cell-based; conditions: Sindbis virus; for inhibition at 25 µM: primary screening, 25 μM final concentration, 24 hours, percent inhibition of viral replication, read-out: SINV Inh; for EC50: secondary screening, SR19-F-luc cells
WNV (WN-hRuPac cells) = assay: WNV antiviral activity, WN-hRuPac cells, Renilla luciferase; type: cell-based, West Nile virus; conditions: for EC50 / inhibition at 25 µM: West Nile virus; for EC50: read-out: WNV EC50; for inhibition at 25 µM: primary screening, 25 μM final concentration, 24 hours, percent inhibition of viral replication, read-out: WNV Inh; for WNV TI: therapeutic index CC50/EC50, WNV
DNG (D2-hRuPac cells) = assay: DNG antiviral activity, D2-hRuPac cells, Renilla luciferase; type: cell-based, Dengue fever virus; conditions: Dengue virus, secondary screening
YFV (YF-hRuPac cells) = assay: microbe, parasite or virus in culture; type: cell-based, yellow fever virus; conditions: for inhibition at 25 µM / EC50: Yellow fever virus; for inhibition at 25 µM: 24 h, read-out: YFV Inh; for EC50: read-out: YFV EC50
RSV minigenome = assay: RSV minigenome-dependent β-galactosidase expression assay (RSV β-Gal); type: cell-based, respiratory syncytial virus; conditions: for EC50 / inhibition at 25 µM: human respiratory syncytial virus; for EC50: RSV; for inhibition at 25 µM: primary screening, 25 μM final concentration, 24 hours, percent inhibition of viral replication, read-out: RSV Inh; for RSV TI: therapeutic index CC50/EC50, RSV
[1] = test system: HCV replicon (Clone A cells, Huh7, subgenomic hepatits C virus RNA); assay: HCV Neo screening assay (HCV replicon, NPTII ELISA); type: cell-based, hepatitis C virus; conditions: for inhibition at 25 µM / EC50: Hepatitis C virus, Huh-7; for inhibition at 25 µM: primary screening, 25 μM final concentration, 24 hours, percent inhibition of viral replication, read-out: HCV Inh; for EC50: Secondary Data, HCV; for HCV TI: therapeutic index CC50/EC50, HCV
[2] = Secondary Data, read-out: RSV EC50

Row | Compound | inhibition at 25 µM (EBOV minigenome) | EC50 (EBOV minigenome) | inhibition at 25 µM (SINV (SR19-F-luc cells)) | EC50 (SINV (SR19-F-luc cells)) | inhibition at 25 µM (WNV (WN-hRuPac cells)) | WNV TI (WNV (WN-hRuPac cells)) | EC50 (DNG (D2-hRuPac cells)) | YFV TI (YFV (YF-hRuPac cells)) | inhibition at 25 µM (YFV (YF-hRuPac cells)) | EC50 (YFV (YF-hRuPac cells)) | CC50 (in vitro; DNG CC50) | CC50 (in vitro; EBOV CC50) | CC50 (in vitro; HCV CC50) | CC50 (in vitro; RSV CC50) | CC50 (in vitro; SINV CC50) | CC50 (in vitro; WNV CC50) | CC50 (in vitro; YFV CC50) | inhibition at 25 µM (RSV minigenome) | RSV TI (RSV minigenome) | inhibition at 25 µM [1] | also measured
1 | CCOC(=O)c1ccc2ncc(C(=O)OCC)c(NCc3ccco3)c2c1 [Compound 13] | 59% | 6.03 µM | -12.1% | 44.5 µM | 98% | 7.4 | 10.5 µM | 3.98 | 89.5% | 8.88 µM | 35.4 µM | 35.4 µM | ≥ 75 µM | 35.4 µM | 35.4 µM | 35.4 µM | 35.4 µM | 92.1% | 12.07 | 27.4% | EC50 (WNV (WN-hRuPac cells); Secondary Data, WNV): 4.78 µM; EC50 (RSV minigenome; [2]): 2.93 µM
2 | CCOc1ccc2nc(C)cc(Nc3ccc(OCc4ccccc4Cl)cc3)c2c1 [Compound 42] | 99.5% | 65.8 µM | 99.8% | 2.99 µM | 100% | 13.47 | 5.05 µM | 14.22 | 100% | 1.8 µM | 25.6 µM | 25.6 µM | 1.21 µM | 25.6 µM | 25.6 µM | 25.6 µM | 25.6 µM | 100% | 17.29 | 96.5% | EC50 (WNV (WN-hRuPac cells); Secondary Data, WNV): 1.9 µM; EC50 (RSV minigenome; [2]): 1.48 µM; EC50 [1]: 1.3 µM; HCV TI [1]: 0.93
3 | CCOC(=O)c1ccc2nc(C)cc(Nc3ccc(C)cc3C)c2c1 [Compound 51] | 33.7% | 52.6 µM | 51.9% | 13.7 µM | 49% | 3.5 | 61 µM | 3.62 | 41.8% | 15.5 µM | 56.1 µM | 56.1 µM | 21.4 µM | 56.1 µM | 56.1 µM | 56.1 µM | 56.1 µM | 75.5% | 15.07 | 55.5% | EC50 (WNV (WN-hRuPac cells); Secondary Data, WNV): 16 µM; EC50 (RSV minigenome; [2]): 3.72 µM; EC50 [1]: 11.3 µM; HCV TI [1]: 1.89
4 | CCOc1ccc2nc(C)cc(Nc3cc(Cl)ccc3OC)c2c1 [Compound 58] | 80.2% | 4.94 µM | 92.8% | 4.2 µM | 91.5% | 4.91 | 6.91 µM | 7.04 | 96.6% | 2.65 µM | 18.7 µM | 18.7 µM | 11.8 µM | 18.7 µM | 18.7 µM | 18.7 µM | 18.7 µM | 99.8% | 7.98 | 137% | EC50 (WNV (WN-hRuPac cells); Secondary Data, WNV): 3.8 µM; EC50 (RSV minigenome; [2]): 2.34 µM; EC50 [1]: 4.95 µM; HCV TI [1]: 2.38
5 | Cc1ccc2nc(C)cc(N3CCC(C)CC3)c2c1 [Compound 15] | 49.2% | 71.1 µM | 72% | 5.58 µM | 55.9% | 0.97 | 71.9 µM | 1.57 | 37.5% | 46.4 µM | 72.9 µM | 72.9 µM | 35.7 µM | 72.9 µM | 72.9 µM | 72.9 µM | 72.9 µM | 72.6% | 9.94 | 45.1% | EC50 (WNV (WN-hRuPac cells); Secondary Data, WNV): ≥ 75 µM; EC50 (RSV minigenome; [2]): 7.34 µM
6 | Cc1ccc2nc(C)cc(Nc3ccccc3)c2c1 [Compound 3] | -44.2% | 65.2 µM | 76.1% | 1.29 µM | 38.7% | 1.75 | 34.2 µM | 2.84 | 41.7% | 18.4 µM | 52.3 µM | 52.3 µM | 32.3 µM | 52.3 µM | 52.3 µM | 52.3 µM | 52.3 µM | 86.3% | 4.63 | 32.1% | EC50 (WNV (WN-hRuPac cells)): 29.9 µM; EC50 (RSV minigenome; read-out: RSV EC50, Secondary Data): 11.3 µM
